Laboratory results taken from patent US20180319753A1, “MICROBIOCIDAL OXADIAZOLE DERIVATIVES” (SYNGENTA PARTICIPATIONS AG, priority 2015, published 2018).

Legend:
Phakopsora pachyrhizi = Phakopsora pachyrhizi / soybean / leaf disc preventative (Asian soybean rust); format: in vivo; details: foliar, 200 ppm in the applied formulation, soybean leaf disks, inoculated one day after application, assessed 12 to 14 days after application, read-out: disease control compared to untreated control leaf disks
How it was run: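 Read-out is percent disease control relative to untreated check discs, assessed once untreated discs show adequate disease, 12 to 14 days after application. Compounds, tested at 200 ppm in the applied formulation, are sprayed onto soybean leaf discs one day before inoculation with a spore suspension.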

[1] = test system: Puccinia recondita f. Sp. Tritici; assay: Puccinia recondita f. sp. tritici / wheat / leaf disc curative (brown rust); format: in vivo; details: foliar, 200 ppm in the applied formulation, wheat leaf segments cv. Kanzler, applied 1 day after inoculation, assessed 6 to 8 days after application, read-out: disease control compared to untreated control leaf disks
Method: Leaf disks or leaf segments of various plant species are cut from plants grown in a greenhouse. The cut leaf disks or segments are placed in multiwell plates (24-well format) onto water agar. The leaf disks are sprayed with a test solution before (preventative) or after (curative) inoculation. Compounds to be tested are prepared as DMSO solutions (max. 10 mg/ml) which are diluted to the appropriate concentration with 0.025% Tween20 just before spraying. The inoculated leaf disks or segments are incubated under defined conditions (temperature, relative humidity, light, etc.) according to the respective test system. A single evaluation of disease level is carried out 3 to 14 days after inoculation, depending on the pathosystem. Percent disease control relative to the untreated check leaf disks or segments is then calculated.
Wheat leaf segments cv. Kanzler are placed on agar in multiwell plates (24-well format). The leaf segments are then inoculated with a spore suspension of the fungus. Plates were stored in darkness at 19° C. and 75% relative humidity. The formulated test compound diluted in water was applied 1 day after inoculation. The leaf segments were incubated at 19° C. and 75% relative humidity under a light regime of 12 hours light/12 hours darkness in a climate cabinet and the activity of a compound was assessed as percent disease control compared to untreated when an appropriate level of disease damage appears in untreated check leaf segments (6 to 8 days after application).
The following compounds at 200 ppm in the applied formulation give at least 80% disease control in this test when compared to untreated control leaf disks under the same conditions, which show extensive disease development.

[2] = test system: Puccinia recondita f. Sp. Tritici; assay: Puccinia recondita f. sp. tritici / wheat / leaf disc preventative (brown rust); format: in vivo; details: foliar, 200 ppm in the applied formulation, wheat leaf segments cv. Kanzler, inoculated 1 day after application, assessed 7 to 9 days after application, read-out: disease control compared to untreated control leaf disks
How it was run: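 Wheat leaf segments (cv. Kanzler) on water agar were sprayed with test compound (DMSO stock diluted in 0.025% Tween20/water), then spore-inoculated 1 day later. Incubation at 19° C., 75% rh, 12 h light/12 h dark; percent disease control versus untreated segments scored 7 to 9 days after application. Tested at 200 ppm.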

[3] = test system: Glomerella lagenarium (Colletotrichum lagenarium); assay: Glomerella lagenarium (Colletotrichum lagenarium) liquid culture / cucumber / preventative (anthracnose); format: cell-based; details: Colletotrichum orbiculare; 20 ppm in the applied formulation; liquid culture in PDB, 24° C.; 3 to 4 days after application; read-out: disease control compared to untreated control (inhibition of growth measured photometrically)
How it was run: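 Photometric measurement of fungal growth inhibition 3 to 4 days after application gives percent activity relative to untreated check. Conidia were suspended in potato dextrose broth and combined with DMSO compound solutions; incubation at 24° C.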

## O=S(=O)(c1ccc(-c2noc(C(F)(F)F)n2)cc1)C1CCCC1 [Compound 3.16, 3-(4-cyclopentylsulfonylphenyl)-5-(trifluoromethyl)-1,2,4-oxadiazole]
Phakopsora pachyrhizi
  pest or weed control at 200 ppm: ≥ 80%
other
  melting point: 85 to 92 °C
[1]
  pest or weed control at 200 ppm: ≥ 80%
[2]
  pest or weed control at 200 ppm: ≥ 80%
[3]
  inhibition at 20 ppm: ≥ 80%
